{"source": "patent US20090061022A1", "about": "“Pharmaceutical composition comprising arsenite for the treatment of malignancy” (priority 2004, published 2009)", "key": {"[1]": {"experiment": "Subacute toxicity study, daily oral gavages for 14 days in the mouse, 28-day recovery", "format": "in vivo, CD-1 male mice", "settings": "for Hematology: day 5 and end of treatment", "procedure": "The nature and purpose of this subacute oral toxicity study was to determine the extent to which cumulative toxicity occurred with repeated administration of sodium meta-arsenite for 14 days to mice. Moreover, the study was intended to define the most likely target organs for toxicity and to investigate the reversibility of toxicity.\nAmpoules of sodium meta-arsenite (dissolved in 10% (w/v) glucose in water) in concentrations of 0, 1.6 and 3.2 mg/ml were stored in a refrigerator in the dark. Based on the previous study, the following doses were selected: 0, 16 (½ MTD) and 32 mg/kg/day (MTD). Each dose was administered daily by oral gavages to groups of 20 CD-1 male mice for 14 days, followed by a 28-day recovery period.\nTen animals of each group were killed on day 15 (main groups). The remaining animals (recovery groups) were killed on day 43 after a recovery period of 28 days. Blood samples were collected from all main group animals on day 5 to determine effects on the hematology. Blood samples were also collected at the end of the treatment period (day 15, all main group animals) and after recovery (day 43, all recovery group animals) for hematology and clinical biochemistry.\nClinical signs were evaluated daily and body weights were recorded twice weekly. Macroscopic examination was performed at termination. Organ weight measurements were performed at scheduled termination, i.e. day 15 (main groups) and day 43 (recovery groups). Microscopic examination was performed on a selection of tissues of both main and recovery animals."}, "[2]": {"experiment": "Maximum tolerated dose assessment after daily oral gavages for 14 days in the rat", "format": "in vivo, Wistar rats", "settings": "for Findings / Findings (mortality): rat; for MTD (or LD10 value): rats, oral once daily 14 days, calculated", "procedure": "The objective of this oral toxicity study was to establish a MTD after repeated administration of sodium meta-arsenite to rats.\nAmpoules of sodium meta-arsenite (dissolved in 10% (w/v) glucose in water) in concentrations of 1.2, 2.2, 3.8, 7.0 and 12.6 mg/ml were stored in a refrigerator in the dark. Based on the previous study, the following doses were selected: 6, 11, 19, and 35 and 63 mg/kg/day. Each dose was administered daily by oral gavages to groups of 4 male and 4 female Wistar rats for 14 days, followed by a 14-day recovery period.\nClinical signs were evaluated daily, and body weights were recorded twice weekly. Scheduled termination was performed on day 29 (after 14 days of recovery). Macroscopic examination was performed on all animals."}, "[3]": {"test_system": "panel of 9 human cancer cell lines", "experiment": "Cytotoxic activity, whole panel of 9 human cancer cell lines (means, active/total)", "format": "cell-based", "settings": "for Active/Total cancer cell lines / Active/Total cancer cell lines, percent: active = T/C<30", "procedure": "Three kinds of stock solutions were prepared for in vitro cytotoxic activity test. The first solution is DMSO (dimethyl sulfoxide) mixed with sodium meta-arsenite. […] The third solution is DMSO mixed with arsenic acid sodium salt. Those three solutions were diluted with culture medium (RPMI 1640). The final concentrations of DMSO in those three solutions are less than 0.3 vol %.\nNine kinds of human cancer cell lines out of six kinds of cancers were grown at 37° C. under a controlled atmosphere of 95% air and 5% CO2. The cells were grown on monolayer cultures of RPMI 1640 cell culture medium supplemented with 10% fetal calf serum.\nThe grown cells were harvested from exponential phase cultures by trypsinization and counted. The counted cells were placed in a plate, which has ninety six wells. Each well on the plate is in a shape of a flat-bottomed microtitre. Density of the cells in a suspension was adjusted depending on the cell line. The suspension was prepared by diluting the grown cells with the culture medium (RPMI 1640). […] Then add 50 μl of culture medium (RPMI 1640) only to 6 wells, 50 μl/well, among the 96 wells of one plate. It is called controlled. One well is filled with culture medium plus 5-FU. And another 50 μl of culture medium plus one of the stock solutions were added to each of the left 89 wells to allow cells to resume exponential growth.\nThe cytotoxic activity test was executed with three plates simultaneously to check reliability of the data obtained. The three plates contain the same samples of cancer cells. The three plates were then incubated for 3-7 days under the same controlled atmosphere and cell proliferation was assessed with a modified propodium iodide fluorescence assay. After thawing of the plates, fluorescence was measured using a Millipore Cytofluor 2350-microplate reader (excitation 530 nm emission 620 nm) in order to quantify the total cell number. The assay included untreated and positive controls containing 5-FU.\nGrowth inhibition is defined as (numbers of cancer cell alive) treated (T)/(number of cells) control (C)×100% (T/C %)."}, "[4]": {"settings": "mean over human cancer cell lines tested (9 line panel)"}}, "note": "Where “and” joins values, the source holds several entries; their conditions need not be identical. Identical values can stand only once.", "data": [{"smiles": "O=[As][O-].[Na+]", "note": "[Sodium meta-arsenite, sodium meta-arsenite]", "values": [{"measurement": "Clinical signs", "setting": "[1]; 16 mg/kg/day oral 14 days, mouse", "result": "swelling of the abdomen and piloerection"}, {"measurement": "Hematology", "setting": "[1]; 16 mg/kg/day", "result": "lower erythrocyte count, hemoglobin and haematocrit"}, {"measurement": "Microscopic examination", "setting": "[1]; 16 mg/kg/day, end of treatment", "result": "atrophy of the lymphoid organs (Peyer's patches, thymus), ulceration and hyperplasia of the fore stomach epithelium, necrosis of liver and gall bladder and myeloid hyperplasia and congestion of the sternal bone marrow"}, {"measurement": "Necropsy findings", "setting": "[1]; 16 mg/kg/day, end of treatment", "result": "crateriform retractions of the fore stomach"}, {"measurement": "Clinical signs", "setting": "[1]; 32 mg/kg/day oral 14 days, mouse", "result": "swelling of the abdomen and piloerection"}, {"measurement": "Premature mortality during the treatment phase, males", "setting": "[1]; 32 mg/kg/day oral 14 days, groups of 20 male mice", "result": 7}, {"measurement": "Necropsy findings", "setting": "[1]; 32 mg/kg/day, after treatment", "result": "crateriform retractions of the forestomach and a reduced thymus size"}, {"measurement": "Hematology", "setting": "[1]; 32 mg/kg/day", "result": "Lower leucocyte count, platelet count, affected erythrocyte parameters (lower erythrocyte count, hemoglobin and haematocrit) and low reticulocyte counts"}, {"measurement": "Clinical biochemistry", "setting": "[1]; 32 mg/kg/day, end of treatment", "result": "Decreased glucose, total protein and albumin concentrations and increased sodium, calcium and inorganic phosphorus concentrations"}, {"measurement": "Microscopic examination", "setting": "[1]; 32 mg/kg/day, end of treatment", "result": "atrophy of the lymphoid organs (mesenteric and mandibular lymph nodes, Peyer's patches, spleen and thymus), ulceration and hyperplasia of the fore stomach epithelium, ulceration of the caecum, necrosis of the liver and gall bladder"}, {"measurement": "Organ weights", "setting": "[1]; 32 mg/kg/day, end of treatment", "result": "Decreased absolute and relative spleen and thymus weight and increased relative liver weight"}, {"measurement": "Main target organs for toxicity", "setting": "[1]; 16 and 32 mg/kg/day oral 14 days, mouse", "result": "bone marrow, lymphoid organs and the forestomach"}, {"measurement": "Findings", "setting": "[2]; 6 mg/kg/day oral gavage 14 days", "result": "No findings were noted"}, {"measurement": "Findings", "setting": "[2]; 11 mg/kg/day oral gavage 14 days", "result": "Hunched posture was noted in one male from day 7-13 of treatment, diarrhea was observed for one male on day 6"}, {"measurement": "Findings", "setting": "[2]; 19 mg/kg/day oral gavage 14 days", "result": "Hunched posture (day 6-14 of treatment) was noted in 2 males"}, {"measurement": "Findings (mortality)", "setting": "[2]; 35 mg/kg/day oral gavage 14 days", "result": "One male was found dead on day 13 of treatment, all females died between days 3 to 6"}, {"measurement": "Findings (mortality)", "setting": "[2]; 63 mg/kg/day oral gavage 14 days", "result": "All animals died on days 2 to 5"}, {"measurement": "MTD (or LD10 value)", "setting": "[2]; females", "result": 25, "unit": "mg/kg/day"}, {"measurement": "MTD (or LD10 value)", "setting": "[2]; males", "result": 33, "unit": "mg/kg/day"}, {"measurement": "Active/Total cancer cell lines", "setting": "[3]; 1 μg/ml", "result": "1/9"}, {"measurement": "Active/Total cancer cell lines, percent", "setting": "[3]; 1 μg/ml", "result": 11, "unit": "%"}, {"measurement": "Active/Total cancer cell lines", "setting": "[3]; 3 μg/ml", "result": "2/8"}, {"measurement": "Active/Total cancer cell lines, percent", "setting": "[3]; 3 μg/ml", "result": 25, "unit": "%"}, {"measurement": "Active/Total cancer cell lines", "setting": "[3]; 10 μg/ml", "result": "3/9"}, {"measurement": "Active/Total cancer cell lines, percent", "setting": "[3]; 10 μg/ml", "result": 33, "unit": "%"}, {"measurement": "Active/Total cancer cell lines", "setting": "[3]; 30 μg/ml", "result": "4/8"}, {"measurement": "Active/Total cancer cell lines, percent", "setting": "[3]; 30 μg/ml", "result": 50, "unit": "%"}, {"measurement": "Active/Total cancer cell lines, percent", "setting": "[3]; 100 μg/ml", "result": 89, "unit": "%"}, {"measurement": "Assessment from comparison of the IC50 values", "setting": "[3]; 9 cell line panel", "result": "most potent compound of the series"}, {"measurement": "IC50", "setting": "[3]; [4]", "result": 56, "unit": "µM"}, {"measurement": "IC90", "setting": "[3]; [4]", "result": 490, "unit": "µM"}, {"measurement": "Mean IC50", "setting": "[3]; [4]", "result": 7.3, "unit": "µg/mL"}, {"measurement": "Mean IC70", "setting": "[3]; [4]", "result": "19.8 μg/ml and 152 μM"}, {"measurement": "Mean IC90", "setting": "[3]; [4]", "result": 63.7, "unit": "µg/mL"}]}]}
